This is an account of results in US4246413A, “6-Oxamorphinans” (priority 1979, dated 1981).

For orientation: ED50 means the dose that gives a 50% effect, or the effect in half of the subjects.

Assay [1] is classed as in vivo.
Assay [2] can be described thus: oxymorphone-induced Straub tail test for antagonist activity. Type of assay: in vivo.

As for `COc1ccc2c(c1)[C@]13CCN(C)[C@H](C2)[C@@H]1CC(C)(C)OC3.Cl` (racemic) [BL-6028, 3-Methoxy-7,7,17-trimethyl-6-oxamorphinan Hydrochloride], the “Agonist Activity ED50, Mice (SC)” value in assay [1] is 0.053 mg/kg.

Regarding `CN1CC[C@]23COC(C)(C)C[C@H]2[C@H]1Cc1ccc(O)cc13` (racemic) [BL-6092, 3-Hydroxy-7,7,17-trimethyl-6-oxamorphinan], in assay [1], the “Agonist Activity ED50, Mice (SC)” value worked out at 0.038 mg/kg.

Consider `CC1(C)C[C@H]2[C@H]3Cc4ccc(O)cc4[C@@]2(CCN3CC2CC2)CO1.Cl` (racemic) [BL-6097, 17-Cyclopropylmethyl-7,7-dimethyl-3-hydroxy-6-oxamorphinan Hydrochloride], for which the 50% effective dose (ED50) in assay [2] (sc, read-out: subcutaneous ED50, antagonist activity) is 0.8 mg/kg. Also, the “times the antagonist activity of butorphanol” value in assay [2] (subcutaneous, relative to butorphanol) was “about 1.2 times”. The “Agonist Activity ED50, Mice (PO)” value in assay [1] (PO) is 0.35 mg/kg. The “Agonist Activity ED50, Mice (SC)” value in assay [1] is 0.083 mg/kg. Moreover, the “times as potent as morphine sulfate, orally” value in assay [1] (mice, oral, relative to morphine sulfate) is “about 8.9 times”.
